Experiments:
[1] = molecular target: Human immunodeficiency virus type 1 protease (Human immunodeficiency virus 1, UniProt Q72874); test: In vitro inhibitory activity against HIV-1 protease was evaluated
[2] = test system: Human immunodeficiency virus 1; test: Inhibition of viral spread in MT-4 human lymphoid cells infected with the HIV-IIIb isolate; type: functional; conditions: Human immunodeficiency virus 1, lymphoid; read-out: CIC95
[3] = Maximum plasma concentration in dog; type: ADME, organism-based, Canis lupus familiaris
[4] = Time taken for maximum plasma concentration in dog; type: ADME, organism-based, Canis lupus familiaris
[5] = Oral bioavailability in dog; type: ADME, organism-based, Canis lupus familiaris; conditions: in vivo

Compound `CC(C)(C)NC(=O)[C@@H]1CN(C(=O)c2cccnc2)CCN1C[C@@H](O)[C@H](Cc1ccccc1)NC(=O)O[C@H]1CCOC1` has an IC50 [1] of 371 nM.

With `CC(C)(C)NC(=O)[C@@H]1CN(Cc2ccc(O)cc2)CCN1C[C@@H](O)[C@H](Cc1ccccc1)NC(=O)O[C@H]1CCOC1` the IC50 [1] was 153 nM.

With `Cc1ccc(CN2CCN(C[C@@H](O)[C@H](Cc3ccccc3)NC(=O)O[C@@H]3CCS(=O)(=O)[C@@H]3C(C)C)[C@H](C(=O)NC(C)(C)C)C2)cn1` the IC95 [2] was 100 nM.

`CC(C)(C)NC(=O)[C@@H]1CN(C(=O)OCc2ccccc2)CCN1C[C@@H](O)[C@H](Cc1ccccc1)NC(=O)O[C@H]1CCOC1` gave an IC50 [1] of 18.9 nM.

For `CC(C)(C)NC(=O)[C@@H]1CN(CCc2ccccc2)CCN1C[C@@H](O)[C@H](Cc1ccccc1)NC(=O)O[C@H]1CCOC1`, the IC50 [1] was 478 nM.

`CC(C)(C)NC(=O)[C@@H]1CN(C(=O)OCc2ccccc2)CCN1C[C@H](O)[C@H](Cc1ccccc1)NC(=O)O[C@H]1CCOC1` gave an IC50 [1] of 12000 nM.

`CC(C)[C@@H]1[C@H](OC(=O)N[C@@H](Cc2ccccc2)[C@H](O)CN2CCN(Cc3cc(Cl)cc(Cl)c3)C[C@H]2C(=O)NC(C)(C)C)CCS1(=O)=O` gave an IC95 [2] of 100 nM.

For `CC(C)(C)NC(=O)[C@@H]1CN(C(=O)c2ccncc2)CCN1C[C@@H](O)[C@H](Cc1ccccc1)NC(=O)O[C@H]1CCOC1`, the IC50 [1] was 132 nM.

`CC(C)(C)NC(=O)[C@@H]1CN(CCCc2ccccc2)CCN1C[C@@H](O)[C@H](Cc1ccccc1)NC(=O)O[C@H]1CCOC1` gave an IC50 [1] of 175 nM.

For `CC(C)(C)NC(=O)[C@@H]1CN(Cc2ccccc2)CCN1C[C@@H](O)[C@H](Cc1ccccc1)NC(=O)O[C@H]1CCOC1`, the IC50 [1] was 102 nM.

In the case of `CC(C)(C)NC(=O)[C@@H]1CN(C(=O)c2ccccc2)CCN1C[C@@H](O)[C@H](Cc1ccccc1)NC(=O)O[C@H]1CCOC1`, the IC50 [1] is reported as 414 nM.

`CC(C)(C)NC(=O)[C@@H]1CN(Cc2ccccc2O)CCN1C[C@@H](O)[C@H](Cc1ccccc1)NC(=O)O[C@H]1CCOC1` showed an IC50 [1] of 102 nM.

With `Cc1cc(C)cc(CN2CCN(C[C@@H](O)[C@H](Cc3ccccc3)NC(=O)O[C@@H]3CCS(=O)(=O)[C@@H]3C(C)C)[C@H](C(=O)NC(C)(C)C)C2)c1` the IC95 [2] was 100 nM.

In the case of `CC(C)(C)NC(=O)[C@@H]1CN(C(=O)c2ccccn2)CCN1C[C@@H](O)[C@H](Cc1ccccc1)NC(=O)O[C@H]1CCOC1`, the IC50 [1] is reported as 257 nM.

With `CC(C)(C)NC(=O)[C@@H]1CN(Cc2cccc(O)c2)CCN1C[C@@H](O)[C@H](Cc1ccccc1)NC(=O)O[C@H]1CCOC1` the IC50 [1] was 482 nM and the IC95 [2] was 400 nM.

Compound `CC(C)[C@@H]1[C@H](OC(=O)N[C@@H](Cc2ccccc2)[C@H](O)CN2CCN(Cc3ccncc3)C[C@H]2C(=O)NC(C)(C)C)CCS1(=O)=O` has a Cmax [3] of 6.5 µM and an IC95 [2] of 200 nM.

`CC(C)[C@@H]1[C@H](OC(=O)N[C@@H](Cc2ccccc2)[C@H](O)CN2CCN(Cc3cccc(O)c3)C[C@H]2C(=O)NC(C)(C)C)CCS1(=O)=O` showed a Tmax [4] of 25 min, a Cmax [3] of 4 µM and an IC95 [2] of 100 nM.

With `CC(C)[C@@H]1[C@H](OC(=O)N[C@@H](Cc2ccccc2)[C@H](O)CN2CCN(Cc3ccc4ccccc4c3)C[C@H]2C(=O)NC(C)(C)C)CCS1(=O)=O` the IC95 [2] was 50 nM.

In the case of `CC(C)(C)NC(=O)[C@@H]1CN(Cc2ccncc2)CCN1C[C@@H](O)[C@H](Cc1ccccc1)NC(=O)O[C@H]1CCOC1`, the IC50 [1] is reported as 293 nM and the IC95 [2] is reported as 1500 nM.

With `CC(C)(C)NC(=O)[C@@H]1CN(Cc2ccccn2)CCN1C[C@@H](O)[C@H](Cc1ccccc1)NC(=O)O[C@H]1CCOC1` the IC50 [1] was 957 nM.

`CC(C)(C)NC(=O)[C@@H]1CN(Cc2cccnc2)CCN1C[C@@H](O)[C@H](Cc1ccccc1)NC(=O)O[C@H]1CCOC1` gave an IC50 [1] of 676 nM and an IC95 [2] of 1500 nM.

`Cc1cc(CN2CCN(C[C@@H](O)[C@H](Cc3ccccc3)NC(=O)O[C@@H]3CCS(=O)(=O)[C@@H]3C(C)C)[C@H](C(=O)NC(C)(C)C)C2)cc(Cl)n1` gave a bioavailability [5] of 34.8% and an IC95 [2] of 50 nM.

Reference: ChEMBL document CHEMBL1127978, “A new hydroxyethylamine class of HIV-1 protease inhibitors with high antiviral potency and oral bioavailability” (Bioorg Med Chem Lett, 1994)
